Tests used:
Saccharomyces cerevesiae = assay: Perfume glycoside decomposition ability test of bread yeast; type: cell-based; details: glycoside 0.5% by weight in 15% sucrose solution, yeast 7% by weight, 4° C.
Procedure: Saccharomyces cerevesiae which had been cultured at 30° C. for 1 hour was added, at a concentration of 7% by weight, to a 15% by weight sucrose aqueous solution each containing the glycosides prepared in Synthesis Examples 2, 4 or 5 in an amount of 0.5% by weight. This was cultured at 4° C. while shaked. After 15 minutes and 4 hours culture, the culture liquid was sampled and centrifuged to precipitate the yeast. The supernatant was then extracted with the same volume of diethyl ether as that of the supernatant. The structure of the aroma components was identified on a GC-MS. The amount of the component released was determined on a GC with a detector of FID.

[1] = tested on: Coryneform bacteria (Corynebacterium); assay: Glycoside decomposition ability test of Coryneform bacteria; type: cell-based; details: for Detected component and its amount: 2-phenylethyl alcohol: 32° C., glycoside 0.5% by weight in SCD liquid medium, GC-FID
Procedure: Each of the glycosides synthesized in Synthesis Examples 1 to 3 was added to a soybean casein digest liquid medium (SCD liquid medium) at an amount of 0.5% by weight based on the medium. To the liquid medium was inoculated 2% of bacterial liquid of Coryneform bacteria which had been precultured in an SCD liquid medium. This was cultured at 32° C. in a static state. The culture liquid was sampled after 2 days and 4 days culture and sterizing treatment was conducted on a conventional manner. After the sterizing treatment, aroma components were extracted with the same volume of diethyl ether as that of the culture liquid sampled. The structure of the components was identified on a GC-MS. The amount of the components released was determined on a GC with a detector of FID.

## CC(C)=CCCC(C)CCO[C@@H]1O[C@H](CO)[C@@H](O)[C@H](O)[C@H]1O (stereo partly drawn) [citronellyl glucoside (β-form), Citronellyl Glucoside (β-form)]
Saccharomyces cerevesiae; after 15 minutes culture
  Amount of aroma components: 2.6 peak area × 10^5
Saccharomyces cerevesiae; after 4 hours culture
  Amount of aroma components: 8.8 peak area × 10^5

## C=CCc1ccc(O[C@@H]2O[C@H](CO)[C@@H](O)[C@H](O)[C@H]2O)c(OC)c1 [eugenyl glucoside (β-form), Eugenyl Glucoside (β-form)]
Saccharomyces cerevesiae; after 15 minutes culture
  Amount of aroma components: 0.5 peak area × 10^5
Saccharomyces cerevesiae; after 4 hours culture
  Amount of aroma components: 1.3 peak area × 10^5

## COc1cc(C=O)ccc1O[C@@H]1O[C@H](CO)[C@@H](O)[C@H](O)[C@H]1O [glucovanillin (β-form), Glucovanillin (β-form)]
[1]; after 2 days culture
  Detected component and its amount: vanillin: 0.01 peak area × 10^6
  Detected component and its amount: vanillyl alcohol: 0 peak area × 10^6
[1]; after 4 days culture
  Detected component and its amount: vanillin: 1.75 peak area × 10^6
  Detected component and its amount: vanillyl alcohol: 0.2 peak area × 10^6

## OC[C@H]1O[C@@H](OCCc2ccccc2)[C@H](O)[C@@H](O)[C@@H]1O [2-phenylethylglucoside (β-form), 2-Phenylethyl Glucoside (βform)]
[1]; after 2 days culture
  Detected component and its amount: 2-phenylethyl alcohol: 1.1 peak area × 10^6
[1]; after 4 days culture
  Detected component and its amount: 2-phenylethyl alcohol: 8.0 peak area × 10^6

## OC[C@H]1O[C@H](OCCc2ccccc2)[C@H](O)[C@@H](O)[C@@H]1O [2-phenylethylglucoside (α-form), 2-Phenylethyl Glucoside (α-form)]
[1]; after 2 days culture
  Detected component and its amount: 2-phenylethyl alcohol: 0.01 peak area × 10^6
[1]; after 4 days culture
  Detected component and its amount: 2-phenylethyl alcohol: 0.3 peak area × 10^6
Saccharomyces cerevesiae; after 15 minutes culture
  Amount of aroma components: 0.4 peak area × 10^5
Saccharomyces cerevesiae; after 4 hours culture
  Amount of aroma components: 1.6 peak area × 10^5

Reference: US6576247B1, “Sustained-release aromatic and method of detecting micro-organism by using the same” (Kanebo Ltd. and T. Hasegawa Co. Ltd., priority 1994, dated 2003)
